Patent publication US20240382437A1, “TREATMENT OF ACUTE TISSUE INJURY” (OBVIA PHARMACEUTICALS LTD., priority 2021, published 2024)

Columns and labels:
Caspase 8 = Caspase 8 in brains of ICR mice after lethal radiation; type: in vivo
Description: Caspase 8 inhibition (FIG. 9) in the brain after acute injury, such as radiation, is support for less TNF-α activation, and TRL—and FAS receptor upregulation in the brain. […] This supports that inflammation, such as activation of microglia is normalized after PrC-210.

kidney [1] = conditions: rodent kidney transplant study; cited from earlier work
[2] = in vivo; cited from earlier work
TIMP-1 = TIMP-1 ELISA of serum and kidney homogenate 20 hr after transplant; type: in vivo, rat; conditions: 20 hr post-transplant, kidney homogenates and sera, FIG. 6
Protocol: (§1) TIMP-1, TNF-alpha and MIP-3A/CCL20 levels were determined by ELISA analysis. P values are indicated.
(§2) To determine PrC-210 efficacy in suppressing inflammation-generated damage to a transplanted, allograft organ, we used an allograft rat kidney transplant model that largely eliminated the induction of the ischemia and reperfusion insults in transplant, and created only the third inflammation insult by allograft transplanting a kidney from a Brown strain (BN) rat into a recipient Lewis strain (LEW) rat (FIG. 1). PrC-210 was administered both pre-and post-implantation to determine its protective effect in suppressing any inflammation-associated damage to the transplanted BN kidney in the LEW rat. Brown Rat kidneys were flushed with UW solution containing PrC-210 and immediately transplanted into syngeneic Lewis Rat recipients. Ischemic time was virtually eliminated. […]
(§3) In screening experiments, kidney homogenate supernates from 0 hr controls and 20 hr no treatment kidneys were screened with the Proteome Profiler 29 cytokine array to detect altered, inflammation-associated, cytokine and chemokine expression levels 20 hr post-transplant. […] Individual ELISA plates were then used to quantify these changes in kidney homogenates and sera, now including rats treated with PrC-210 as well. […]

MIP-3a/CCL20 = MIP-3a/CCL20 ELISA 20 hr after transplant; type: in vivo, rat; conditions: 20 hr post-transplant, FIG. 6D
Protocol: as §1, §2, §3

TNF-alpha = TNF-alpha ELISA of serum and kidney homogenate 20 hr after transplant; type: in vivo, rat; conditions: 20 hr post-transplant, kidney homogenates and sera, FIG. 6
Protocol: as §1, §2, §3

transplanted BN kidney = assay: Histology of transplanted BN kidneys 20 hr after allograft transplant into LEW rats; type: in vivo, rat; conditions: 20 hr post-transplant
Protocol: LT (left), RT (right), MTD (Maximum Tolerated Dose), IP (intraperitoneal).
(B,C,D) BN kidneys 20 hr following transplant into LEW rats. “20 hr” control kidneys (B,C) were flushed with room temperature UW Solution prior to transplant, and +PrC-210 kidneys (D) were flushed with room temperature UW Solution containing 30 mM PrC-210 prior to transplant, and recipient LEW rat also received three intraperitoneal systemic PrC-210 doses in the eight hours following transplant. Panel B red arrows highlight tubulitis pathology, and Panel C yellow arrows highlight peritubular capillaritis pathology.
Operator randomly collected sample images of renal tubules from each of the indicated kidney groups in panels A,B,C. Then, using an ImageJ macro, H/E images (e.g., FIG. 3 panels A-C) were analyzed, and above-threshold pink or blue pixels were selected and enumerated, and their ratio was then calculated and plotted to provide an estimate of kidney white blood cell infiltration.
(§4) To determine PrC-210 efficacy in suppressing inflammation-generated damage to a transplanted, allograft organ, we used an allograft rat kidney transplant model that largely eliminated the induction of the ischemia and reperfusion insults in transplant, and created only the third inflammation insult by allograft transplanting a kidney from a Brown strain (BN) rat into a recipient Lewis strain (LEW) rat (FIG. 1). PrC-210 was administered both pre-and post-implantation to determine its protective effect in suppressing any inflammation-associated damage to the transplanted BN kidney in the LEW rat. Brown Rat kidneys were flushed with UW solution containing PrC-210 and immediately transplanted into syngeneic Lewis Rat recipients. Ischemic time was virtually eliminated. Immediately following implant, and for 8 hr following kidney implant, recipient rats received systemic PrC-210 injections at doses that would enable continuous free radical-scavenging within the transplanted kidney. Transplanted kidneys and blood plasma were then harvested 20 hr following transplant to enable measurement of both PrC-210-conferred i) suppression of inflammatory by-products and ii) kidney protection.
The same blinded histology sections were examined for mononuclear white cell infiltration.

BN allograft kidneys = assay: Kidney function (serum creatinine and serum BUN) 20 hr after transplant of the BN kidney into a LEW rat; type: in vivo; conditions: three IP PrC-210 injections
Description: Rats either received no PrC-210 (“20 Hr”) or three IP PrC-210 injections in the 20 hr period following transplant (“20 Hr +PrC-210”), before recipient rat was euthanized and serum was collected. P values are indicated. To determine PrC-210 efficacy in suppressing inflammation-generated damage to a transplanted, allograft organ, we used an allograft rat kidney transplant model that largely eliminated the induction of the ischemia and reperfusion insults in transplant, and created only the third inflammation insult by allograft transplanting a kidney from a Brown strain (BN) rat into a recipient Lewis strain (LEW) rat (FIG. 1). PrC-210 was administered both pre-and post-implantation to determine its protective effect in suppressing any inflammation-associated damage to the transplanted BN kidney in the LEW rat. Brown Rat kidneys were flushed with UW solution containing PrC-210 and immediately transplanted into syngeneic Lewis Rat recipients. Ischemic time was virtually eliminated. Immediately following implant, and for 8 hr following kidney implant, recipient rats received systemic PrC-210 injections at doses that would enable continuous free radical-scavenging within the transplanted kidney. […] Serum creatinine and serum BUN were also measured to assess function in the BN allograft kidneys 20 hr after transplant (FIG. 4).

caspase 3,7 = assay: Activated caspase 3,7 activity in post-transplant kidney supernatant, measured enzymatically; type: in vivo, rat; conditions: 20 hr after transplant; PrC-210 in UW Solution plus systemic doses; 60 min reaction; FIG. 5
Protocol: Kidney supernatant activated caspase 3,7 activity was measured enzymatically in a 60 min reaction.
as §4

Caspase 1 = Caspase 1 in plasma of ICR mice after lethal radiation; type: in vivo; conditions: PrC-210 given before or after lethal radiation with 8.68 Gy, FIG. 8
Description: Caspase 1 is a central activator of acute inflammation in neutrophilic cells, which recruits both T-cells and monocytes and activates apoptosis.

kidney [3] = conditions: rodent kidney transplant study; cited from earlier work; remark: listed apart in the source

For `CNCC(CS)CNC` [PrC-210, 3-(methylamino)-2-(methylaminomethyl) propane-1-thiol], the “duration of the effect on Caspase 8” value (Caspase 8; ICR mice brain, lethal radiation with 8.68 Gy) is given as “at least six days”, the “Caspase 8 in the brain” value (Caspase 8; ICR mice, PrC-210 given before lethal radiation with 8.68 Gy, FIG. 9) is given as “inhibition” and the “free-radical-induced kidney damage induced during 30 hr cold storage” value (kidney [1]) is given as “to background levels”. The hypotension side effects [2] was “no measurable”, the nausea/emesis side effects [2] was “no measurable” and the TIMP-1 levels (TIMP-1) was “decreased”. The MIP-3a/CCL20 levels (MIP-3a/CCL20) was “increased significantly higher”, the TNF-alpha levels (TNF-alpha) was “decreased” and the “integrity of the renal tubule brush border epithelium (histology)” value (transplanted BN kidney; PrC-210 via perfusing UW Solution and intraperitoneal injections, FIG. 3) was “preserved integrity of the renal tubular brush border”. The “Inflammatory Infiltration Score” value (transplanted BN kidney; compared with 0 hr control group, FIG. 3, D) was “statistically the same as the 0 hr control group”, the “Banff scores for tubulitis and peritubular capillaritis” value (transplanted BN kidney; kidney perfused with PrC-210-containing UW Solution (30 mM) plus three post-implant intraperitoneal doses, FIG. 2) was “equal to Banff scores of the “0 Hr” control BN group” and the “mononuclear white cell infiltration (blue pixels)” value (transplanted BN kidney; versus the untreated BN kidneys, P=0.011, FIG. 3) was “significantly suppressed”. For the same compound, the serum creatinine (BN allograft kidneys; P=0.032, FIG. 4) was “significant reductions”, the “serum BUN” value (BN allograft kidneys; P=0.046, FIG. 4) was “significant reductions” and the “activated caspase activity in BN kidney homogenates” value (caspase 3,7) was “same activated caspase activity to that seen in “O hr” control kidneys”. For the same compound, the “Caspase 1 in plasma” value (Caspase 1) was 6-day suppression and the “free-radical-induced kidney damage induced during reperfusion injury upon implant” value (kidney [3]) was “to background levels”.
